Measured values taken from ChEMBL document CHEMBL5233247, “Recent advances in DNA gyrase-targeted antimicrobial agents” (Eur J Med Chem, 2020).
Values after ≈ are worked out from the molar mass of the structure shown. Values joined by “and” are separate entries in the source; they are usually repeats but may differ in a detail not shown here. Equal entries are not always repeated.

Columns and labels:
[1] = tested on: Staphylococcus aureus; experiment: Antimicrobial activity against Staphylococcus aureus MSCL 334 assessed as inhibition of bacterial growth incubated for 24 hrs by standardized broth dilution method; assay type: functional
[2] = tested on: Bacillus subtilis; experiment: Antimicrobial activity against Bacillus subtilis assessed as inhibition of bacterial growth incubated for 24 hrs by standardized broth dilution method; assay type: functional
[3] = tested on: Escherichia coli; experiment: Antimicrobial activity against Escherichia coli MSCL 332 assessed as inhibition of bacterial growth incubated for 24 hrs by standardized broth dilution method; assay type: functional
[4] = tested on: Bacillus subtilis; experiment: Antibacterial activity against Bacillus subtilis DSM 10 by microdilution assay; assay type: functional
[5] = tested on: Mycolicibacterium phlei; experiment: Antibacterial activity against Mycobacterium phlei DSM 750 by microdilution assay; assay type: functional
[6] = tested on: Staphylococcus aureus; experiment: Antimicrobial activity against Staphylococcus aureus assessed as inhibition of visible growth incubated for 24 hrs by agar-dilution method; assay type: functional
[7] = tested on: Listeria monocytogenes; experiment: Antimicrobial activity against Listeria monocytogenes assessed as inhibition of visible growth incubated for 24 hrs by agar-dilution method; assay type: functional
[8] = tested on: Escherichia coli; experiment: Antimicrobial activity against Escherichia coli assessed as inhibition of visible growth incubated for 24 hrs by agar-dilution method; assay type: functional
[9] = tested on: Salmonella enterica subsp. enterica serovar Gallinarum; experiment: Antimicrobial activity against Salmonella gallinarum assessed as inhibition of visible growth incubated for 24 hrs by agar-dilution method; assay type: functional
[10] = tested on: Mycobacterium tuberculosis; experiment: Anti-tubercular activity against Mycobacterium tuberculosis H37Rv strain; assay type: functional
[11] = tested on: Staphylococcus aureus; experiment: Antibacterial activity against methicillin-sensitive Staphylococcus aureus; assay type: functional, organism-based
[12] = tested on: Staphylococcus aureus; experiment: Antibacterial activity against healthcare-acquired methicillin-resistant Staphylococcus aureus; assay type: functional
[13] = tested on: Staphylococcus aureus; experiment: Antibacterial activity against community-acquired methicillin-resistant Staphylococcus aureus; assay type: functional
[14] = tested on: Enterococcus faecalis; experiment: Antibacterial activity against Enterococcus faecalis; assay type: functional
[15] = tested on: Streptococcus pneumoniae; experiment: Antibacterial activity against Streptococcus pneumoniae; assay type: functional
[16] = tested on: Acinetobacter baumannii; experiment: Antibacterial activity against Acinetobacter baumannii; assay type: functional
[17] = molecular target: DNA gyrase subunit A/DNA gyrase subunit B (Mycobacterium tuberculosis (strain ATCC 25618 / H37Rv), UniProt P9WG45+P9WG47); experiment: Inhibition of Mycobacterium tuberculosis DNA gyrase; assay type: protein-complex assay
[18] = molecular target: DNA gyrase (Escherichia coli, UniProt P0AES4+P0AES6); experiment: Inhibition of Escherichia coli DNA gyrase; assay type: protein-complex assay
[19] = tested on: Enterococcus faecalis; experiment: Antimicrobial activity against Enterococcus faecalis; assay type: functional
[20] = molecular target: DNA gyrase (Staphylococcus aureus, UniProt P0A0K8+P20831); experiment: Inhibition of Staphylococcus aureus DNA gyrase; assay type: protein-complex assay
[21] = tested on: Escherichia coli; experiment: Antimicrobial activity against Escherichia coli MTCC 443 assessed as zone of inhibition incubated for 24 hrs by agar well diffusion method; assay type: functional
[22] = tested on: Pseudomonas aeruginosa; experiment: Antimicrobial activity against Pseudomonas aeruginosa MTCC 424 assessed as zone of inhibition incubated for 24 hrs by agar well diffusion method; assay type: functional
[23] = tested on: Staphylococcus aureus; experiment: Antimicrobial activity against Staphylococcus aureus MTCC 96 assessed as zone of inhibition incubated for 24 hrs by agar well diffusion method; assay type: functional
[24] = tested on: Streptococcus pyogenes; experiment: Antimicrobial activity against […] MTCC 442 assessed as zone of inhibition incubated for 24 hrs by agar well diffusion method; assay type: functional
[25] = tested on: Mycobacterium tuberculosis; experiment: Antitubercular activity against Mycobacterium tuberculosis H37Rv MTCC-200; assay type: functional
[26] = Inhibition of Salmonella typhimurium DNA gyrase; design: species or system Salmonella enterica subsp. enterica serovar Typhimurium
[27] = tested on: Salmonella typhimurium; experiment: Antibacterial activity against Salmonella typhimurium assessed as inhibition was bacterial growth by broth micro dilution method; assay type: functional, Salmonella enterica subsp. enterica serovar Typhimurium; conditions: Salmonella enterica
[28] = tested on: Salmonella enterica; experiment: Antibacterial activity against Salmonella enterica assessed as inhibition was bacterial growth by broth micro dilution method; assay type: functional
[29] = tested on: Staphylococcus aureus; experiment: Antibacterial activity against methicillin-resistant Staphylococcus aureus; assay type: functional, organism-based
[30] = tested on: Escherichia coli; experiment: Antibacterial activity against Escherichia coli DSM 1116 by microdilution assay; assay type: functional
[31] = tested on: Staphylococcus aureus; experiment: Antimicrobial activity against Staphylococcus aureus ATCC 25923 incubated for 18 to 24 hrs by double micro-dilution method; assay type: functional; conditions: time 18-24 hrs
[32] = tested on: Enterococcus faecalis; experiment: Antimicrobial activity against Enterococcus faecalis ATCC 29212 incubated for 18 to 24 hrs by double micro-dilution method; assay type: functional; conditions: time 18-24 hrs
[33] = tested on: Pseudomonas aeruginosa; experiment: Antimicrobial activity against Pseudomonas aeruginosa ATCC 27853 incubated for 18 to 24 hrs by double micro-dilution method; assay type: functional; conditions: time 18-24 hrs
[34] = tested on: Klebsiella pneumoniae; experiment: Antimicrobial activity against Klebsiella pneumoniae ATCC 13883 incubated for 18 to 24 hrs by double micro-dilution method; assay type: functional; conditions: time 18-24 hrs
[35] = tested on: Acinetobacter haemolyticus; experiment: Antimicrobial activity against Acinetobacter haemolyticus ATCC 19002 incubated for 18 to 24 hrs by double micro-dilution method; assay type: functional; conditions: time 18-24 hrs

DNA gyrase (Staphylococcus aureus, UniProt P0A0K8+P20831), sequence (P0A0K8 whole entry, the tested form may be a part): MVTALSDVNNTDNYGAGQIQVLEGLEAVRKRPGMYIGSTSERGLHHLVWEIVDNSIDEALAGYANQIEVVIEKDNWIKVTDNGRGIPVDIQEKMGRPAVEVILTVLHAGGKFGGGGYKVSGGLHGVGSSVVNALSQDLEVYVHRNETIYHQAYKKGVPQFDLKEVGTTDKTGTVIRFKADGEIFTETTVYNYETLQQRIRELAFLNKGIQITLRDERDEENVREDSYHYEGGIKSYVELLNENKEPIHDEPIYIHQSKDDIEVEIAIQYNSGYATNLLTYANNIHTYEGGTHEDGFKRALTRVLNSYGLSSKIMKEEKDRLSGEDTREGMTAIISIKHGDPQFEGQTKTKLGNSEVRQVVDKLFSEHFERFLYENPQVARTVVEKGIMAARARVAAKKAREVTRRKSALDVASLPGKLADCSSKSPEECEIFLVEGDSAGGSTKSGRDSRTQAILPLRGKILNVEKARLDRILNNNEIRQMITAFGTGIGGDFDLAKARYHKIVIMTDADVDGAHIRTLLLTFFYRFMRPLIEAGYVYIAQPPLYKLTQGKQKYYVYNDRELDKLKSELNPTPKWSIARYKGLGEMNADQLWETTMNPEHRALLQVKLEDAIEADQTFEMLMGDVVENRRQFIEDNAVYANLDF
DNA gyrase (Staphylococcus aureus, UniProt P0A0K8+P20831), sequence (P20831 whole entry, the tested form may be a part): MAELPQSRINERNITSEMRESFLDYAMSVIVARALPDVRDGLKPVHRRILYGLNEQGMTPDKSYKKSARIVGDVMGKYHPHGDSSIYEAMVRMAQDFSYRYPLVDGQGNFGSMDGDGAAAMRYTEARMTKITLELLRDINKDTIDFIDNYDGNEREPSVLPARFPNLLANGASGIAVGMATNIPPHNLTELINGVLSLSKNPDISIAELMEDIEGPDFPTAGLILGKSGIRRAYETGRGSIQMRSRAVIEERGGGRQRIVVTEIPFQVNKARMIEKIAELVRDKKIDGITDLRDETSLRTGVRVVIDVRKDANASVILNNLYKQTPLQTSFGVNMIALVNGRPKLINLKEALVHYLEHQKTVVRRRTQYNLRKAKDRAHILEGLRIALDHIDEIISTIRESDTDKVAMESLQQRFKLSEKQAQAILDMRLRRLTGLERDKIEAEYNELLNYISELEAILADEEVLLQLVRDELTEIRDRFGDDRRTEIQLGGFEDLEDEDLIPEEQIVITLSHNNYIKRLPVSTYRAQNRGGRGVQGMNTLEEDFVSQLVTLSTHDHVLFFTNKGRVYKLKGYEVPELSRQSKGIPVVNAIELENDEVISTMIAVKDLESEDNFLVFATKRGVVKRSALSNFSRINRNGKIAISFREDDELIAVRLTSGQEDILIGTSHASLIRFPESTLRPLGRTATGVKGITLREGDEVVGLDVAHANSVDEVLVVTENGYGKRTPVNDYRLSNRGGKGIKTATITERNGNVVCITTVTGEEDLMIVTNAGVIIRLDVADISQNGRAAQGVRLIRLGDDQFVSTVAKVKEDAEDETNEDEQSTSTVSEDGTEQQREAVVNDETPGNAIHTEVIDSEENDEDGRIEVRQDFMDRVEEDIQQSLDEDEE
DNA gyrase subunit A/DNA gyrase subunit B, sequence (P9WG45 whole entry): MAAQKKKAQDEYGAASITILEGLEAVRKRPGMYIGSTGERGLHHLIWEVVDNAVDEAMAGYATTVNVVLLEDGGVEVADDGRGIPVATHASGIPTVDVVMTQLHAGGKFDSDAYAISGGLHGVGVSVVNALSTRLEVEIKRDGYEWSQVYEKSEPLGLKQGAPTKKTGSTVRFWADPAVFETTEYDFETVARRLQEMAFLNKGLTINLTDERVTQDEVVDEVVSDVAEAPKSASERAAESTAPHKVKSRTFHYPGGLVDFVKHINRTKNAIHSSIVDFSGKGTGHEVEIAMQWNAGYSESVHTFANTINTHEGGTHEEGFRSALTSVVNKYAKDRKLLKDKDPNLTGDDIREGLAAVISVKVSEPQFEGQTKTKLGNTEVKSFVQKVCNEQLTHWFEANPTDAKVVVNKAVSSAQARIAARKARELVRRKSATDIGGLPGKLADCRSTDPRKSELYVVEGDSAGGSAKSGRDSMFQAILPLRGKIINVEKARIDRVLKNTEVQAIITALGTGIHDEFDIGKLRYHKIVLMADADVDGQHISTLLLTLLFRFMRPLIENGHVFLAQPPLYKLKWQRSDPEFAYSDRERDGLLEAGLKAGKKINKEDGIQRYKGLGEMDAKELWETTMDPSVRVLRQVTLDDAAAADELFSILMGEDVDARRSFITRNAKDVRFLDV
DNA gyrase subunit A/DNA gyrase subunit B, sequence (P9WG47 whole entry): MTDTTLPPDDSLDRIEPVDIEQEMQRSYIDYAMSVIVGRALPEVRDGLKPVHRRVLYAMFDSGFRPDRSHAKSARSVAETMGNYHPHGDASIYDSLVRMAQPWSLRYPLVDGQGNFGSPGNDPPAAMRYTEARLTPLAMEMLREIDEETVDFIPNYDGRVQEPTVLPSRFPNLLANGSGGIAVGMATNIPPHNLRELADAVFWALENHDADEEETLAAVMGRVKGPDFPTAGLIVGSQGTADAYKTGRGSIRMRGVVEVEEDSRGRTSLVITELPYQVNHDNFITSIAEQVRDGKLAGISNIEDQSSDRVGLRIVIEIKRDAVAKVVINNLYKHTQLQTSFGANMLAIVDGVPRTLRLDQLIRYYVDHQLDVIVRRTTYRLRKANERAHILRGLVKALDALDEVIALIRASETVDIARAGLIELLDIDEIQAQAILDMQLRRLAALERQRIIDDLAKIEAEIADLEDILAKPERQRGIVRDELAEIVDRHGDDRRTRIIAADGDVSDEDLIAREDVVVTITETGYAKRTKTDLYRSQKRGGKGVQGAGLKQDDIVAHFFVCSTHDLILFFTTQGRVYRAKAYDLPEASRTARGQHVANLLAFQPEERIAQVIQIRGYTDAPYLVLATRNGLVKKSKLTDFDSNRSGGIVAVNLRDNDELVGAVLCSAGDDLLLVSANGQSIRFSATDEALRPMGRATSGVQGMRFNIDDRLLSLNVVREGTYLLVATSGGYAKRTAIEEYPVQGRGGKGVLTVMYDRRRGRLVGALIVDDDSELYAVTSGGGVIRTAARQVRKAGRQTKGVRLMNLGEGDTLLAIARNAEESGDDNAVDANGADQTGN

CCCCCCCOCC[N+]1(C)CCc2ccccc2C1.[I-] (stereo not drawn)
MIC [1]: 8 µg/mL
MIC [2]: 128 µg/mL
MIC [3]: 128 µg/mL

COc1c(NC(=O)c2ccc(NC(=O)[C@H](CC#N)NC(=O)c3ccc(NC(=O)/C(C)=C/c4ccc(O)cc4)cc3)c(OC)c2O)ccc(C(=O)O)c1O
MIC [4]: 0.062 µM (≈ 0.0449 µg/mL)
MIC [5]: 2 µM (≈ 1.45 µg/mL)

Cc1ccc(-n2nc(C)c(C(=O)Oc3ncn(-c4ccccc4)n3)c2Cl)cc1
MIC [6]: 0.5 µg/mL (≈ 1.27 µM)
MIC [7]: 0.5 µg/mL (≈ 1.27 µM)
MIC [8]: 0.5 µg/mL (≈ 1.27 µM)
MIC [9]: 0.5 µg/mL (≈ 1.27 µM)

COc1cc(/C=N/Nc2nc(-c3ccc([N+](=O)[O-])cc3)cs2)ccc1Oc1ccnc2cc(Cl)ccc12
MIC [10]: 3.12 µM (≈ 1.66 µg/mL)

COc1c(N2CCCCC2)c(F)cc2c(=O)c(C(=O)N3CCSC3)cn(C3CC3)c12
MIC [11]: 0.39 µg/mL (≈ 0.904 µM)
MIC [12]: 0.62 µg/mL (≈ 1.44 µM)
MIC [13]: 25 µg/mL (≈ 57.9 µM)
MIC [14]: 12.6 µg/mL (≈ 29.2 µM)
MIC [15]: 25 µg/mL (≈ 57.9 µM)
MIC [16]: 12.6 µg/mL (≈ 29.2 µM)
IC50 [17]: 105000 nM

COc1cc(C(=O)NCC(=O)O)ccc1NC(=O)c1cc(Cl)c(Cl)[nH]1
IC50 [18]: 120 nM

O=C(O)c1ccc(CNC(=O)[C@H](Cc2ccc(O)cc2)NC(=O)c2cc(Br)c(Br)[nH]2)cc1
IC50 [18]: 619 nM

CC(C)COc1cc(C(=O)NCC(=O)O)ccc1NC(=O)c1cc(Cl)c(Cl)[nH]1
IC50 [18]: 47000 nM
MIC [19]: 12.5 µM (≈ 5.35 µg/mL)

COc1c(NC(=O)c2ccc(NC(=O)[C@@H](NC(=O)c3ccc(NC(=O)/C(C)=C/c4ccc(O)cc4)cc3)C(C)O)c(OC)c2O)ccc(C(=O)O)c1O (stereo partly drawn)
MIC [4]: 0.5 µM (≈ 0.364 µg/mL)
MIC [5]: 2 µM (≈ 1.46 µg/mL)

COc1ccc2ccc(F)c(CC(=O)N/N=C/c3ccc(F)cc3F)c2n1
IC50 [20]: 375000 nM
inhibition zone (IZ) [21]: 21 mm
inhibition zone (IZ) [22]: 20 mm
inhibition zone (IZ) [23]: 18 mm
inhibition zone (IZ) [24]: 20 mm

CCCCCCCOCC[N+]1(C)CCCc2ccccc21.[I-] (stereo not drawn)
MIC [1]: 1 µg/mL
MIC [2]: 2 µg/mL
MIC [3]: 128 µg/mL

CCNC(=O)Nc1nc2ccc(NC(=O)Cc3csc(NC(C)=O)n3)cc2s1
IC50 [18]: 5600 nM

COc1ccc(C(=O)Oc2ccc(/C=C3\C(=O)Nc4ccccc43)cc2)cc1OC
MIC [25]: 31 µg/mL (≈ 77.2 µM)

COc1c(N2CC3(CC3)[C@@](C)(N)C2)c(F)cc2c(=O)c(C(=O)O)cn([C@@H]3C[C@@H]3F)c12
IC50 [26]: 0.32 µg/mL and 0.25 µg/mL
MIC [27]: 0.13 µg/mL (≈ 0.31 µM)
MIC [28]: 0.06 µg/mL (≈ 0.143 µM)

CCn1cc(C(=O)N[C@@H](CC2CCCCC2)C(=O)N[C@H](CCCNC(=N)N)C(=O)N[C@@H](CC2CCCCC2)C(=O)N[C@H](CCCNC(=N)N)C(=O)N[C@@H](CC2CCCCC2)C(=O)N[C@H](CCCNC(=N)N)C(=O)N[C@@H](CC2CCCCC2)C(N)=O)c(=O)c2ccc(C)nc21
IC50 [29]: 13 µg/mL (≈ 9.9 µM)
IC50 [11]: 13 µg/mL (≈ 9.9 µM)
IC50 [20]: 25000 nM

COc1cc(/C=N/Nc2nc(-c3ccc(Cl)cc3)cs2)ccc1Oc1ccnc2cc(Cl)ccc12
MIC [10]: 3.12 µM (≈ 1.63 µg/mL)

O=C1COc2ccc(CNC3CCN(CCn4c(=O)c5nocc5c5ccc(F)cc54)CC3)nc2N1
IC50 [18]: 426 nM

O=C1COc2ccc(CNC3CCN(CCn4c(=O)c5ncoc5c5ccc(F)cc54)CC3)nc2N1
IC50 [18]: 426 nM

O=C1COc2cc(F)c(CNC3CCN(CCn4c(=O)c5nocc5c5ccc(F)cc54)CC3)nc2N1
IC50 [18]: 411 nM

COc1c(NC(=O)c2ccc(NC(=O)C(C)(C)NC(=O)c3ccc(NC(=O)/C(C)=C/c4ccc(O)cc4)cc3)c(OC)c2O)ccc(C(=O)O)c1O
MIC [4]: 0.5 µM (≈ 0.356 µg/mL)
MIC [30]: 0.25 µM (≈ 0.178 µg/mL)
MIC ([30]; Escherichia coli, DSM 1116, read-out: MIC): 0.5 µM (≈ 0.356 µg/mL)
MIC [5]: 2 µM (≈ 1.43 µg/mL)

O=C(O)c1cn(C2CC2)c2cc(N3CCN(Cn4nc(CN5CCN(c6ccccc6)CC5)n(Cc5ccccc5)c4=O)CC3)c(F)cc2c1=O
IC50 [18]: 750 nM
MIC [31]: 8 µg/mL (≈ 11.5 µM)
MIC [32]: 8 µg/mL (≈ 11.5 µM)
MIC [33]: 0.125 µg/mL (≈ 0.18 µM)
MIC [34]: 0.125 µg/mL (≈ 0.18 µM)
MIC [35]: 0.125 µg/mL (≈ 0.18 µM)

O=C(O)c1cn(C2CC2)c2cc(N3CCNCC3)c(F)cc2c1=O [CIPROFLOXACIN]
IC50 [26]: 0.25 µg/mL (≈ 0.754 µM)
MIC [27]: 0.016 µg/mL (≈ 0.0483 µM)
MIC [28]: 0.016 µg/mL (≈ 0.0483 µM)
MIC [10]: 12.5 µM (≈ 4.14 µg/mL)
MIC [11]: 0.098 µg/mL (≈ 0.296 µM)
MIC [12]: 0.2 µg/mL (≈ 0.604 µM)
MIC [13]: 6.3 µg/mL (≈ 19 µM)
MIC [14]: 0.79 µg/mL (≈ 2.38 µM)
MIC [15]: 0.39 µg/mL (≈ 1.18 µM)
MIC [16]: 0.78 µg/mL (≈ 2.35 µM)
MIC [7]: 0.125 µg/mL (≈ 0.377 µM)
MIC [9]: 0.125 µg/mL (≈ 0.377 µM)

CCn1cc(C(=O)O)c(=O)c2ccc(C)nc21 [NALIDIXIC ACID]
IC50 [29]: 47 µg/mL (≈ 202 µM)
IC50 [11]: 47 µg/mL (≈ 202 µM)

NC(=O)c1cnccn1 [PYRAZINAMIDE]
MIC [10]: 3.12 µM (≈ 0.384 µg/mL)
